# Test results taken from patent US7238708B2, “Glucose sensor” (The Regents of the University of California, priority 2004, dated 2007).
# “And” between values parts separate entries of the source, which are not always exact repeats. Equal entries are not always repeated. Where two headings read alike, the source gives them in different places.
# Assays:
# hSGLT3 [1] = target: T1, hSGLT3 (Homo sapiens, UniProt Q9NY91); experiment: two-electrode voltage-clamp, membrane potential of hSGLT3-expressing Xenopus oocytes; assay type: cell-based; details: for effect on the membrane potential: concentrations as high as 100 mM; for membrane depolarization: 5 mM sugar, Na+ buffer pH 7.5, single oocyte; for effect on the membrane potential (qualitative): exposure of hSGLT3 oocytes to sugar; for inhibition of glucose-induced membrane depolarization: 250 μM phlorizin
# T1 construct: The complete hSGLT3 clone was created by ligation of this PCR product to the 3′-end of hSGLT3 at the HindIII site; expressed in transfected cells; host or cells: Xenopus laevis oocytes injected with hSGLT3 cRNA
# T1 sequence (Q9NY91 1-659): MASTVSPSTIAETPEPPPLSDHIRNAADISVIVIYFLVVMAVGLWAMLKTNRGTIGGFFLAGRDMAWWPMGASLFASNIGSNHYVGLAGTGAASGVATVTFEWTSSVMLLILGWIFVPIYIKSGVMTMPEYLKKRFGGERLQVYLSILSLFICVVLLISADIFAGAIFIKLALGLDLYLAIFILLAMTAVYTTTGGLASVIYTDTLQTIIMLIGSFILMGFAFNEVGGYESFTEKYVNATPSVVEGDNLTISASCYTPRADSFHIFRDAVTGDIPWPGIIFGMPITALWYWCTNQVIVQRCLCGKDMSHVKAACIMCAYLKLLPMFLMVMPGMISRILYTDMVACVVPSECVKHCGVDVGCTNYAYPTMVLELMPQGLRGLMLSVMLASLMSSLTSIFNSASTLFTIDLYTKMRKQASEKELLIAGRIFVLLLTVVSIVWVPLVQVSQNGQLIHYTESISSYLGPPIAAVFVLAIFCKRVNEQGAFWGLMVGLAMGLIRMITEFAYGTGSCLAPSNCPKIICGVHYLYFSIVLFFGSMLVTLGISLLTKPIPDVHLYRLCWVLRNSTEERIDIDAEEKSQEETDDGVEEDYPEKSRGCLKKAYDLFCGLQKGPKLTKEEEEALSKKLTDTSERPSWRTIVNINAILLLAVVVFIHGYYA
# Method: (§1) Expression of hSGLT3 in oocytes. Stage VI oocytes from Xenopus laevis (Nasco, Fort Atkinson, Wis.) were defolliculated and injected with hSGLT3 cRNA and maintained at 18° C. in modified Barth's medium containing gentamycin (5 mg/ml) and penicillin (100 units/ml)/streptomycin (100 μg/ml). Each oocyte was injected with 20 ng of cRNA. Experiments were performed at 22±1° C., 3-9 days after the injection.
# (§2) Two electrode-voltage clamp. Oocytes expressing SGLTs and control oocytes were placed in the chamber, impaled with the two electrodes and continuously superfused with the required medium (Loo et al. (1998) Proc. Natl. Acad. Sci. USA 95:7789-7794). Membrane potential changes and ionic currents were measured when adding different sugar concentrations. Sugar-specific changes in current were the difference between the values measured with sugar and the preceding value in buffer alone. Na^+ buffer contained 100 mM NaCl, 2 mM KCl, 1 mM CaCl2, 1 mM MgCl2 and 10 mM HEPES/tris (pH 7.5). In Na^+-free buffer, choline Cl replaced NaCl, and for the experiments at pH 5.0 HEPES/tris was replaced with MES/tris. In some experiments at low pH we simultaneously recorded the intracellular pH of the oocyte using the fluorescent dye BCECF-AM (15, 16). The apparent affinity (K0.5) and apparent maximal current (Imax) were calculated with the equation [1]=Imax. [S]/(K0.5+[S]), using the non-linear fitting method in SigmaPlot (SPSS, Chicago, Ill.) where [S] is the sugar concentration. The results are illustrated by experiments on single oocytes, but each was representative of at least 3-8 different oocytes.
# (§3) Using the techniques described above, a two-electrode voltage-clamp was used to monitor hSGLT3's electrical properties in Xenopus oocytes. The oocytes were exposed to candidate compounds, and the depolarization of membrane potential was recorded.
# hSGLT3 [2] = target: T1, hSGLT3; experiment: sugar-induced currents in hSGLT3-expressing oocytes under voltage clamp; assay type: cell-based
# Method: as §1, §2
# hSGLT3 [3] = target: T1, hSGLT3; experiment: simultaneous [14C]-glucose uptake and sugar-induced current in hSGLT3-expressing oocytes; assay type: cell-based
# Method: as §1
# (§4) Uptake experiments. Control oocytes or oocytes expressing a SGLT were superfused with a buffer solution containing either 100 mM NaCl or choline chloride at pH 7.5 or 5 while the plasma membrane potential was clamped at voltages between −50 and −110 mV. […] After the sugar was removed from the bathing solution the current returned to the baseline. The oocyte was washed, solubilized and glucose uptake determined using a scintillation spectrometer. Sugar-induced current was obtained by integrating the difference between baseline and the glucose-dependent current. The current, measured simultaneously with sugar uptake, was converted to its molar equivalent of univalent charge. [^14C]-glucose uptake in non-injected oocytes from the same batch of oocytes was used as a control.
# pSGLT3 = target: T2, pSGLT3 (Sus scrofa, UniProt P31636); experiment: ratio of positive ion uptake and sugar uptake in pSGLT3-expressing oocytes; assay type: cell-based, pig
# T2 construct: expressed in transfected cells; host or cells: Xenopus laevis oocytes expressing pig SGLT3
# T2 sequence (P31636 1-660): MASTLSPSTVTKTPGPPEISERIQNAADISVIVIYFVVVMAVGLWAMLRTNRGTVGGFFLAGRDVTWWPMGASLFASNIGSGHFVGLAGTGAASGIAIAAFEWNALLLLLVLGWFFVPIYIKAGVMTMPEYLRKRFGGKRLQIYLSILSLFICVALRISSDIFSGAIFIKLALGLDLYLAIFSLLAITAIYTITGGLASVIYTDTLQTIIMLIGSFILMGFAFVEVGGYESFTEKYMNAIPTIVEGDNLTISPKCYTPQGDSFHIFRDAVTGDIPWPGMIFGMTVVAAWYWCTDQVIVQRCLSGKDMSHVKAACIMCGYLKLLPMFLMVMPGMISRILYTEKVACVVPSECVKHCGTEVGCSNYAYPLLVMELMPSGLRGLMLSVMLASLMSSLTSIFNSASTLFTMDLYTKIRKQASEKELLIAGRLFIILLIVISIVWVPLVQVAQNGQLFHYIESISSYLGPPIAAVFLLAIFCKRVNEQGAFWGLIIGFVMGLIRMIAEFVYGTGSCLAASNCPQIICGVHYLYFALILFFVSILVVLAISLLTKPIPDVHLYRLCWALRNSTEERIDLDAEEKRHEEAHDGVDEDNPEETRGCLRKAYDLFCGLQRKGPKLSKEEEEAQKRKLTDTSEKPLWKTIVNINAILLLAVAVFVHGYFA
# Method: as §4
# SGLT1 [4] = target: T3, SGLT1 (Homo sapiens, UniProt P13866); parameters: host or cells: Xenopus laevis oocytes expressing hSGLT1; details: cited from earlier work
# T3 sequence (P13866 1-664): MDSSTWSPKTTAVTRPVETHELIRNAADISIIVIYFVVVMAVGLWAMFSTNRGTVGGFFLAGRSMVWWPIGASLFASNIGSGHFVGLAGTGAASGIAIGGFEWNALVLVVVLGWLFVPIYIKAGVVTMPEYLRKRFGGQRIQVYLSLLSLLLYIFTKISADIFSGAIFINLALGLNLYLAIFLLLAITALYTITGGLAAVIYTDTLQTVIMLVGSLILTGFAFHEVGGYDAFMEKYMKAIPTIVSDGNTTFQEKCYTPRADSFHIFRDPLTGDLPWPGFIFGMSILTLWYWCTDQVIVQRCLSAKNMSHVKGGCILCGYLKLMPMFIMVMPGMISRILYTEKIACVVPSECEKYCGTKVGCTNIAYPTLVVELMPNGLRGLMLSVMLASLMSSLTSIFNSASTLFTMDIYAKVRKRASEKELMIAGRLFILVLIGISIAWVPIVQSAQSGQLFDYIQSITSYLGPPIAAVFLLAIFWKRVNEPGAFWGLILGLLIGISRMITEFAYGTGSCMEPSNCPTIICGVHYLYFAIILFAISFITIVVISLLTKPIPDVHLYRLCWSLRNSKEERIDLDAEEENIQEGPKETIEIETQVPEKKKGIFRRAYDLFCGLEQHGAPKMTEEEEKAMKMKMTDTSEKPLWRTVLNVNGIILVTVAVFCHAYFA
# control cells = experiment: response of control cells to amino sugars; assay type: cell-based, Xenopus laevis; details: 30 mM
# Method: as §2, with “The results are illustrated by experiments on single oocytes, but each was representative of at least 3-8 different oocytes.” left out
# as §3
# SGLT1 [5] = target: T3, SGLT1; experiment: response of cells expressing SGLT1 to amino sugars; assay type: cell-based; parameters: expressed in transfected cells; host or cells: cells expressing SGLT1; Xenopus oocytes are inferred from 'Using the techniques described above'; details: 30 mM
# Method: as §2, with “The results are illustrated by experiments on single oocytes, but each was representative of at least 3-8 different oocytes.” left out
# as §3
# guinea pig ileum = experiment: mechanical activity of guinea pig ileum
# [6] = injected into the cerebrospinal fluid; cited from earlier work
# [7] = test system: glucose-responsive neurons in the hypothalamus; details: cited from earlier work
# neuroendocrine cells = details: Na+-dependent and phlorizin-sensitive manner; cited from earlier work
# [8] = 2 mM glucose, -70 mV, Na+ buffer pH 5
smiles,measurement,setting,value
O=C[C@H](O)C[C@H](O)[C@H](O)CO [3-deoxy-D-glucose],effect on the membrane potential,hSGLT3 [1],failed to affect the membrane potential
O=C(CO)[C@@H](O)[C@H](O)[C@H](O)CO [D-fructose],effect on the membrane potential,hSGLT3 [1],no effect
O=C[C@H](O)[C@@H](O)[C@@H](O)[C@H](O)CO [D-galactose],membrane depolarization,hSGLT3 [1],no effect
same,effect on the membrane potential,hSGLT3 [1],no effect
O=C[C@H](O)[C@@H](O)[C@H](O)[C@H](O)CO [D-glucose],depolarization of the membrane potential by phlorizin sensitive inward current,hSGLT3 [1],up to 50 mV
same,membrane depolarization,hSGLT3 [1],about 4 mV
same,ΔVmax,hSGLT3 [1]; 6 experiments,26±9 mV
same,EC50,"hSGLT3 [1]; K0.5 (apparent affinity) of depolarization, 6 experiments, pH 7.5",60 mM and ~60 mM
same,effect on the membrane potential (qualitative),hSGLT3 [1],reversibly depolarized the membrane potential
same,maximal depolarization (ΔVm),hSGLT3 [1]; fit of a single oocyte (FIG. 4B),23 mV
same,activation energy (Ea) of glucose-induced current,"hSGLT3 [2]; pH 5, presence and absence of Na+, 10, 22 and 28° C., Arrhenius plots",~38 kJ/mol
same,cation uptake in hSGLT3 oocytes,"hSGLT3 [3]; 2 mM D-glucose, 5 minutes, Na+ pH 5, n=5",81 ± 7 pmol
same,D-glucose uptake in hSGLT3 oocytes,"hSGLT3 [3]; 2 mM D-glucose, 5 minutes, Na+ pH 5, n=5, control oocytes 11±0.6",11 ± 0.5 pmol
same,glucose uptake in hSGLT3 oocytes compared with control oocytes,hSGLT3 [3]; [8],identical to that in control oocytes
same,sugar dependent current equivalent to univalent positive charge,hSGLT3 [3]; [8],81±7 pmol per 5 minutes
same,ratio positive charge / sugar uptake,"pSGLT3; acidic pH, n=6",4.7±0.2
same,ratio positive charge / sugar uptake,"pSGLT3; neutral pH, n=12",2.1±0.1
same,ratio positive ion uptake / sugar uptake,"SGLT1 [4]; Na+ at neutral pH, n=4",2.1±0.04
same,ratio positive ion uptake / sugar uptake,"SGLT1 [4]; acidic pH in H+, n=7",2±0.1
OC[C@H]1NC[C@H](O)[C@@H](O)[C@@H]1O [Deoxynojirimycin],EC50,"hSGLT3 [1]; range printed with mixed units (nanomolar to micromolar), read-out: affinities to activate SGLT2",0.0005 to 0.002 mM
same,effects on control cells,control cells,no effects
same,effects on cells expressing SGLT1,SGLT1 [5],no effects
CCN1C[C@H](O)[C@@H](O)[C@H](O)[C@H]1CO [N-(n-ethyl)deoxynojirimycin],effects on control cells,control cells,no effects
same,effects on cells expressing SGLT1,SGLT1 [5],no effects
OC[C@@H](O)[C@@H](O)[C@H](O)[C@H](O)CO [mannitol],effect on the membrane potential,hSGLT3 [1],no effect
O=C(CCc1ccc(O)cc1)c1c(O)cc(O)cc1O[C@@H]1O[C@H](CO)[C@@H](O)[C@H](O)[C@H]1O [phlorizin],block of the responses to the amino sugars,hSGLT3 [1],blocked
same,inhibition of glucose-induced membrane depolarization,hSGLT3 [1],blocked
same,inhibition of glucose-induced membrane depolarization,hSGLT3 [1]; listed as Phlorizin,inhibited the membrane depolarization
same,block of the effect of glucose on mechanical activity of guinea pig ileum,guinea pig ileum,blocked
same,food intake,[6],increases food intake
same,glucose mediated increase in firing rate,[7],blocks
"CO[C@H]1O[C@H](CO)[C@@H](O)[C@H](O)[C@H]1O [αMDG, α-methyl-D-glucopyranoside]",membrane depolarization,hSGLT3 [1],about 4 mV
same,effect on the membrane potential (qualitative),hSGLT3 [1],reversibly depolarized the membrane potential
same,maximum current at saturating sugar concentration (Imax),"hSGLT3 [2]; -150 mV, Na+ buffer, n=5",122±20 nA
same,EC50,"hSGLT3 [2]; -150 mV, Na+ buffer, n=5, read-out: apparent sugar affinity (K0.5) of current",36 ± 6 mM
same,Imax,"hSGLT3 [2]; pH 5 in Choline Cl, four oocytes",2385±651 nA
same,Imax,"hSGLT3 [2]; pH 5 in NaCl, four oocytes",1725±99 nA
same,EC50,"hSGLT3 [2]; pH 5 in NaCl, four oocytes, read-out: K0.5",41 ± 7 mM
same,GLP-1 peptide secretion,neuroendocrine cells,stimulates GLP-1 peptide secretion
